Source: PubChem BioAssay AID330 (DTP/NCI, 2004)
Values joined by “and” are separate entries in the source; they are usually repeats but may differ in a detail not shown here. Equal values may be shown once. Inconclusive results and toxic doses are left out. Peptide text beside a SMILES is read from it.

Tested on: P388 leukemia ip, CD2F1 mice, survival T/C
Experiment: NCI In Vivo Anticancer Drug Screen. Data for tumor model P388 Leukemia (intraperitoneal) in CD2F1 (CDF1) mice
Settings: endpoint: median survival time, higher = longer survival
Method in brief: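 Mice carrying the transplanted tumor received test compound or vehicle. Survival was recorded in each group, and the value is the treated-group measurement divided by that of the vehicle-treated control group.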

[1] = dose: 60.0 mg/kg/injection, schedule: Q01DX005 (ip), vehicle: saline with Tween-80
[2] = dose: 120.0 mg/kg/injection, schedule: Q01DX005 (ip), vehicle: saline with Tween-80
[3] = dose: 240.0 mg/kg/injection, schedule: Q01DX005 (ip), vehicle: saline with Tween-80
[4] = dose: 50.0 mg/kg/injection, schedule: Q01DX009 (ip), vehicle: saline with Tween-80
[5] = dose: 100.0 mg/kg/injection, schedule: Q01DX009 (ip), vehicle: saline with Tween-80
[6] = dose: 50.0 mg/kg/injection, schedule: Q01DX009 (ip), vehicle: Klucel (hydroxypropylcellulose) (HPC)
[7] = dose: 100.0 mg/kg/injection, schedule: Q01DX009 (ip), vehicle: Klucel (hydroxypropylcellulose) (HPC)
[8] = dose: 200.0 mg/kg/injection, schedule: Q01DX009 (ip), vehicle: Klucel (hydroxypropylcellulose) (HPC)
[9] = dose: 100.0 mg/kg/injection, schedule: Q01DX001 (ip), vehicle: Klucel (hydroxypropylcellulose) (HPC)
[10] = dose: 60.0 mg/kg/injection, schedule: Q01DX005 (ip), vehicle: Klucel (hydroxypropylcellulose) (HPC)
[11] = dose: 120.0 mg/kg/injection, schedule: Q01DX005 (ip), vehicle: Klucel (hydroxypropylcellulose) (HPC)

CCCSc1ncnc2nc(C)[nH]c12
T/C (dose: 0.39 mg/kg/injection, schedule: Q01DX009 (ip), vehicle: saline with Tween-80): 95 % of control
T/C (dose: 0.78 mg/kg/injection, schedule: Q01DX009 (ip), vehicle: saline with Tween-80): 92 % of control
T/C (dose: 1.56 mg/kg/injection, schedule: Q01DX009 (ip), vehicle: saline with Tween-80): 98 % of control
T/C (dose: 3.13 mg/kg/injection, schedule: Q01DX009 (ip), vehicle: saline with Tween-80): 94 % of control

OCc1sccc1-n1cccc1
T/C [1]: 104 % of control
T/C [2]: 104 % of control
T/C [3]: 104 % of control

BrCC1(CBr)OCCO1
T/C [4]: 106 % of control

Cc1cc(NC(=O)CCc2ccc(N3C(N)=NC(N)=NC3(C)C)cc2)ccc1S(=O)(=O)F
T/C (dose: 1.5 mg/kg/injection, schedule: Q01DX009 (ip), vehicle: saline sonified): 122 % of control
T/C (dose: 25.0 mg/kg/injection, schedule: Q01DX009 (ip), vehicle: saline with Tween-80): 150 % of control
T/C [5]: 113 % of control

O=C1OC(C(=O)O)c2ccc3c(c21)OCO3 (stereo not given)
T/C [5]: 100 % of control
T/C (dose: 200.0 mg/kg/injection, schedule: Q01DX009 (ip), vehicle: saline with Tween-80): 98 % of control
T/C (dose: 400.0 mg/kg/injection, schedule: Q01DX009 (ip), vehicle: saline with Tween-80): 91 % of control

C/C=C/C=c1/[nH]c(=O)/c(=C\c2ccccc2)[nH]c1=O
T/C [6]: 104 % of control
T/C [7]: 104 % of control
T/C [8]: 103 % of control

CC1COC2(CCC(=CC(=O)O)CC2)O1 (stereo not given)
T/C [9]: 100 % of control
T/C (dose: 200.0 mg/kg/injection, schedule: Q01DX001 (ip), vehicle: Klucel (hydroxypropylcellulose) (HPC)): 102 % of control
T/C (dose: 400.0 mg/kg/injection, schedule: Q01DX001 (ip), vehicle: Klucel (hydroxypropylcellulose) (HPC)): 97 % of control

O=C(O)C1C2c3ccccc3C(c3ccccc32)C1C(=O)NCC1CC1 (stereo not given)
T/C [10]: 109 % of control
T/C [11]: 110 % of control

CCC(C)C(NC(=O)C(N)CC(C)C)C(=O)O (stereo not drawn) (H-Leu-Ile-OH; configuration not given here)
T/C (dose: 60.0 mg/kg/injection, schedule: Q01DX005 (ip), vehicle: saline): 108 % of control
T/C (dose: 120.0 mg/kg/injection, schedule: Q01DX005 (ip), vehicle: saline): 108 % of control
T/C (dose: 240.0 mg/kg/injection, schedule: Q01DX005 (ip), vehicle: saline): 104 % of control

CN(CCOC(N)=O)CCOC(N)=O
T/C [1]: 92 % of control
T/C [2]: 97 % of control
T/C [3]: 95 % of control

O=C(/C=C\c1ccc([N+](=O)[O-])cc1)c1ccccc(=O)c1O
T/C (dose: 12.5 mg/kg/injection, schedule: Q01DX001 (ip), vehicle: Klucel (hydroxypropylcellulose) (HPC)): 95 % of control
T/C (dose: 25.0 mg/kg/injection, schedule: Q01DX001 (ip), vehicle: Klucel (hydroxypropylcellulose) (HPC)): 100 % of control
T/C (dose: 50.0 mg/kg/injection, schedule: Q01DX001 (ip), vehicle: Klucel (hydroxypropylcellulose) (HPC)): 99 % of control
T/C [9]: 98 % of control

C[N+](C)=c1ccc2nc3c(cc(Nc4ccccc4)c4ccccc43)oc-2c1
T/C [10]: 88 % of control
T/C [11]: 91 % of control
T/C (dose: 240.0 mg/kg/injection, schedule: Q01DX005 (ip), vehicle: Klucel (hydroxypropylcellulose) (HPC)): 103 % of control

Cc1nnc(NN=O)nc1C
T/C (dose: 3.12 mg/kg/injection, schedule: Q01DX009 (ip), vehicle: water): 96 % of control
T/C (dose: 6.25 mg/kg/injection, schedule: Q01DX009 (ip), vehicle: water): 100 % of control
T/C (dose: 12.5 mg/kg/injection, schedule: Q01DX009 (ip), vehicle: water): 105 % of control and 98 % of control
T/C (dose: 25.0 mg/kg/injection, schedule: Q01DX009 (ip), vehicle: water): 104 % of control and 106 % of control
T/C (dose: 50.0 mg/kg/injection, schedule: Q01DX009 (ip), vehicle: water): 99 % of control and 101 % of control and 105 % of control
T/C (dose: 100.0 mg/kg/injection, schedule: Q01DX009 (ip), vehicle: water): 96 % of control

CCC1([N+](=O)[O-])CN(C)CC2CCCCN2C1 (stereo not given)
T/C (dose: 25.0 mg/kg/injection, schedule: Q04DX002 (ip), vehicle: water): 95 % of control
T/C (dose: 50.0 mg/kg/injection, schedule: Q04DX002 (ip), vehicle: water): 101 % of control
T/C (dose: 100.0 mg/kg/injection, schedule: Q04DX002 (ip), vehicle: saline): 100 % of control
T/C (dose: 100.0 mg/kg/injection, schedule: Q04DX002 (ip), vehicle: water): 103 % of control

O=C1C=C(O)CN1C(=O)c1ccc(Cl)cc1
T/C [6]: 98 % of control
T/C [7]: 107 % of control
T/C [8]: 107 % of control

O=C(O)C(Cc1ccc([N+](=O)[O-])cc1)NCc1ccco1 (stereo not given)
T/C [4]: 119 % of control
T/C [5]: 119 % of control

C=NN(C)C
T/C (dose: 2.39 mg/kg/injection, schedule: Q01DX009 (ip), vehicle: Klucel (hydroxypropylcellulose) (HPC)): 95 % of control
T/C (dose: 4.75 mg/kg/injection, schedule: Q01DX009 (ip), vehicle: Klucel (hydroxypropylcellulose) (HPC)): 102 % of control
T/C (dose: 9.5 mg/kg/injection, schedule: Q01DX009 (ip), vehicle: Klucel (hydroxypropylcellulose) (HPC)): 103 % of control
T/C (dose: 19.0 mg/kg/injection, schedule: Q01DX009 (ip), vehicle: Klucel (hydroxypropylcellulose) (HPC)): 105 % of control

CCO[Si](O[Si](OCC)(c1ccccc1)c1ccccc1)(c1ccccc1)c1ccccc1
T/C (dose: 50.0 mg/kg/injection, schedule: Q01DX009 (ip), vehicle: saline): 93 % of control
T/C (dose: 100.0 mg/kg/injection, schedule: Q01DX009 (ip), vehicle: saline): 102 % of control
T/C (dose: 200.0 mg/kg/injection, schedule: Q01DX009 (ip), vehicle: saline): 91 % of control

COc1ccc(-c2c([O-])oc(-c3ccccc3)[n+]2C)cc1
T/C [1]: 98 % of control
T/C [2]: 96 % of control
T/C [3]: 98 % of control

O=[N+]([O-])c1cccc(NC(c2ccc(N(CCCl)CCCl)cc2)P(=O)(Oc2ccccc2)Oc2ccccc2)c1 (stereo not given)
T/C [6]: 95 % of control
T/C [7]: 98 % of control
T/C [8]: 95 % of control

O=C(Cc1nc2ccccc2[nH]1)NNC(=S)NC1CCCCC1
T/C (dose: 50.0 mg/kg/injection, schedule: Q01DX005 (ip), vehicle: Klucel (hydroxypropylcellulose) (HPC)): 87 % of control
T/C (dose: 100.0 mg/kg/injection, schedule: Q01DX005 (ip), vehicle: Klucel (hydroxypropylcellulose) (HPC)): 88 % of control

O=C(NN1C(=O)CS(=O)(=O)C1c1ccc(Cl)cc1Cl)c1ccncc1 (stereo not given)
T/C (dose: 50.0 mg/kg/injection, schedule: Q01DX005 (ip), vehicle: saline with Tween-80): 100 % of control
T/C (dose: 100.0 mg/kg/injection, schedule: Q01DX005 (ip), vehicle: saline with Tween-80): 100 % of control
T/C (dose: 200.0 mg/kg/injection, schedule: Q01DX005 (ip), vehicle: saline with Tween-80): 102 % of control

CCOC(=O)C1=CNc2c(C#N)cnn2C1(C(=O)OCC)c1cn(C)c2ccccc12 (stereo not given)
T/C (dose: 6.25 mg/kg/injection, schedule: Q01DX005 (ip), vehicle: saline with Tween-80): 99 % of control
T/C (dose: 12.5 mg/kg/injection, schedule: Q01DX005 (ip), vehicle: saline with Tween-80): 95 % of control
T/C (dose: 25.0 mg/kg/injection, schedule: Q01DX005 (ip), vehicle: saline with Tween-80): 87 % of control

COc1nc(NC2OC(COC(C)=O)C(OC(C)=O)C(OC(C)=O)C2OC(C)=O)c(N=CC=Nc2c(NC3OC(COC(C)=O)C(OC(C)=O)C(OC(C)=O)C3OC(C)=O)nc(OC)n(C)c2=O)c(=O)n1C (stereo not given)
T/C [1]: 86 % of control
T/C [2]: 92 % of control
T/C [3]: 94 % of control

CC1CCC2C(C)C3C(CC4C5CC=C6CC(OC7OC(CO)C(O)C(OC8OC(CO)C(O)C(O)C8O)C7OC7OC(C)C(O)C(O)C7O)CCC6(C)C5CCC43C)N2C1 (stereo not given)
T/C (dose: 6.25 mg/kg/injection, schedule: Q01DX005 (ip), vehicle: Klucel (hydroxypropylcellulose) (HPC)): 91 % of control
T/C (dose: 12.5 mg/kg/injection, schedule: Q01DX005 (ip), vehicle: Klucel (hydroxypropylcellulose) (HPC)): 95 % of control
T/C (dose: 25.0 mg/kg/injection, schedule: Q01DX005 (ip), vehicle: Klucel (hydroxypropylcellulose) (HPC)): 89 % of control
T/C (dose: 25.0 mg/kg/injection, schedule: Q04DX003 (ip), vehicle: suspension in saline): 98 % of control
T/C (dose: 50.0 mg/kg/injection, schedule: Q04DX003 (ip), vehicle: suspension in saline): 96 % of control
T/C (dose: 100.0 mg/kg/injection, schedule: Q04DX003 (ip), vehicle: suspension in saline): 105 % of control
